Data from PubChem BioAssay (NCI).
Where “and” joins values, the source holds several entries; their conditions need not be identical. Identical values can stand only once.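 Cells were grown in 96-well plates and exposed to each compound for 48 hours at five concentrations; endpoints were interpolated linearly between bracketing concentrations, or set to the highest concentration if not reached. GI50: concentration for 50% inhibition of growth. TGI is the concentration that stops growth completely.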

Assays:
Assay in all cases: NCI-60 cell line screen, 48 h
A549 NSCLC = tested on: A549 NSCLC
K-562 leukemia = tested on: K-562 leukemia
NCI-H23 lung = tested on: NCI-H23 lung
786-0 renal = tested on: 786-0 renal
OVCAR-8 ovarian = tested on: OVCAR-8 ovarian
HT29 colon = tested on: HT29 colon
SK-MEL-2 melanoma = tested on: SK-MEL-2 melanoma
RPMI-8226 leukemia = tested on: RPMI-8226 leukemia
M14 melanoma = tested on: M14 melanoma
OVCAR-4 ovarian = tested on: OVCAR-4 ovarian

O=C1c2ccccc2-c2c1c1ccccc1c(=O)n2CCNCCNCCNCCNCCn1c2c(c3ccccc3c1=O)C(=O)c1ccccc1-2
GI50 (A549 NSCLC): 0.59 µM
TGI (A549 NSCLC): 3.23 µM
GI50 (K-562 leukemia): 0.0462 µM
GI50 (NCI-H23 lung): 0.615 µM
TGI (NCI-H23 lung): 2.75 µM
GI50 (786-0 renal): 0.102 µM
TGI (786-0 renal): 2.19 µM
GI50 (OVCAR-8 ovarian): 0.172 µM
TGI (OVCAR-8 ovarian): 2.69 µM
GI50 (HT29 colon): 0.0986 µM
TGI (HT29 colon): 4.07 µM
GI50 (SK-MEL-2 melanoma): 0.692 µM
TGI (SK-MEL-2 melanoma): 2.4 µM
GI50 (RPMI-8226 leukemia): 0.0178 µM
TGI (RPMI-8226 leukemia): 0.187 µM

Cc1cc(O)c2c(c1)OC1(C)CCC3C(C)(C)CCCC34COC2C14 (centres undefined)
TGI (M14 melanoma): 29.1 µM
TGI (A549 NSCLC): 28.6 µM
TGI (K-562 leukemia): 46.3 µM
TGI (NCI-H23 lung): 35.9 µM
TGI (786-0 renal): 30.7 µM
TGI (OVCAR-8 ovarian): 30.9 µM
TGI (OVCAR-4 ovarian): 33.5 µM

CNC(=O)NCCCCC(NC(C)=O)C(=O)NCc1ccccc1 (centres undefined)
TGI (M14 melanoma): > 100 µM
TGI (A549 NSCLC): > 100 µM
TGI (NCI-H23 lung): > 100 µM
TGI (786-0 renal): > 100 µM
TGI (OVCAR-8 ovarian): > 100 µM
TGI (HT29 colon): > 100 µM
TGI (OVCAR-4 ovarian): > 100 µM
TGI (SK-MEL-2 melanoma): > 100 µM
TGI (RPMI-8226 leukemia): > 100 µM

CCNC(=O)COc1ccc(Cl)c(C)c1
TGI (M14 melanoma): > 100 µM
TGI (A549 NSCLC): > 100 µM
TGI (K-562 leukemia): > 100 µM
TGI (NCI-H23 lung): > 100 µM
TGI (786-0 renal): > 100 µM
TGI (HT29 colon): > 100 µM
TGI (OVCAR-4 ovarian): > 100 µM
TGI (SK-MEL-2 melanoma): > 100 µM
TGI (RPMI-8226 leukemia): > 100 µM

CCOc1ccc2cc(-c3nn(CC4CCN(C)CC4)c4ncnc(N)c34)ccc2c1
GI50 (M14 melanoma): 15.8 µM
TGI (M14 melanoma): 32.5 µM
GI50 (A549 NSCLC): 17.9 µM
TGI (A549 NSCLC): 40.2 µM
GI50 (K-562 leukemia): 11.6 µM
TGI (K-562 leukemia): 27.7 µM
GI50 (NCI-H23 lung): 15.1 µM
TGI (NCI-H23 lung): 41.6 µM
GI50 (786-0 renal): 14.5 µM
TGI (786-0 renal): 29.7 µM
GI50 (HT29 colon): 7.01 µM
TGI (HT29 colon): 27.3 µM
GI50 (OVCAR-4 ovarian): 12.9 µM
TGI (OVCAR-4 ovarian): 29.7 µM
GI50 (SK-MEL-2 melanoma): 17 µM
TGI (SK-MEL-2 melanoma): 32.4 µM
GI50 (RPMI-8226 leukemia): 10.3 µM
TGI (RPMI-8226 leukemia): 30.5 µM

OC(Cc1cccc2ccccc12)CN1CCC(c2ccccc2)CC1 (centres undefined)
TGI (M14 melanoma): 28.7 µM
TGI (A549 NSCLC): 29.9 µM
TGI (K-562 leukemia): 38.1 µM
TGI (NCI-H23 lung): 30.8 µM
TGI (786-0 renal): 28.3 µM
TGI (OVCAR-8 ovarian): 32 µM
TGI (HT29 colon): 25.8 µM
TGI (RPMI-8226 leukemia): 31.8 µM

CN1C2C=CC(=O)C1C(C#N)C2 (centres undefined)
GI50 (M14 melanoma): 29.5 µM and 69.1 µM
TGI (M14 melanoma): 89.7 µM and > 100 µM
TGI (A549 NSCLC): > 100 µM
TGI (K-562 leukemia): > 100 µM
TGI (NCI-H23 lung): 87.9 µM and > 100 µM
GI50 (786-0 renal): 16.3 µM and 51.7 µM
TGI (786-0 renal): 35.5 µM and > 100 µM
GI50 (OVCAR-8 ovarian): 20.5 µM and 45.7 µM
TGI (OVCAR-8 ovarian): 44.8 µM and > 100 µM
GI50 (HT29 colon): 31.8 µM and 90.5 µM
TGI (HT29 colon): > 100 µM
GI50 (SK-MEL-2 melanoma): 12.5 µM and 88.3 µM
TGI (SK-MEL-2 melanoma): 32.1 µM and > 100 µM

CSC(=S)NCc1cn(C)c2ccccc12
GI50 (M14 melanoma): 64.8 µM
TGI (M14 melanoma): > 100 µM
GI50 (A549 NSCLC): 38.1 µM
TGI (A549 NSCLC): > 100 µM
GI50 (NCI-H23 lung): 29.8 µM
TGI (NCI-H23 lung): 87.7 µM
GI50 (786-0 renal): 24.8 µM
TGI (786-0 renal): > 100 µM
GI50 (OVCAR-8 ovarian): 24.2 µM
TGI (OVCAR-8 ovarian): 90.6 µM
GI50 (HT29 colon): 65.3 µM
TGI (HT29 colon): > 100 µM
GI50 (OVCAR-4 ovarian): 62 µM
TGI (OVCAR-4 ovarian): > 100 µM
GI50 (SK-MEL-2 melanoma): 34.2 µM
TGI (SK-MEL-2 melanoma): > 100 µM
GI50 (RPMI-8226 leukemia): 30.7 µM
TGI (RPMI-8226 leukemia): > 100 µM

NC(=S)c1cccc(C2Nc3ccccc3O2)c1 (centres undefined)
TGI (M14 melanoma): > 100 µM
TGI (A549 NSCLC): > 100 µM
TGI (K-562 leukemia): > 100 µM
TGI (NCI-H23 lung): > 100 µM
TGI (786-0 renal): > 100 µM
TGI (OVCAR-8 ovarian): > 100 µM
TGI (HT29 colon): > 100 µM
TGI (OVCAR-4 ovarian): > 100 µM
TGI (SK-MEL-2 melanoma): > 100 µM

OC[C@H]1N[C@H](CO)[C@@H](O)[C@H]1O
TGI (M14 melanoma): > 100 µM
TGI (A549 NSCLC): > 100 µM
TGI (K-562 leukemia): > 100 µM
TGI (NCI-H23 lung): > 100 µM
TGI (786-0 renal): > 100 µM
TGI (OVCAR-8 ovarian): > 100 µM
TGI (HT29 colon): > 100 µM
TGI (SK-MEL-2 melanoma): > 100 µM
TGI (RPMI-8226 leukemia): > 100 µM

COc1c(OC2OC(C)C(O)C(O)C2O)c(OC)c2oc(-c3ccc(O)cc3)cc(=O)c2c1O (centres undefined)
GI50 (A549 NSCLC): 32.3 µM
TGI (A549 NSCLC): > 100 µM
GI50 (K-562 leukemia): 26.2 µM
TGI (K-562 leukemia): > 100 µM
GI50 (NCI-H23 lung): 20.6 µM
TGI (NCI-H23 lung): 57.1 µM
GI50 (786-0 renal): 50.7 µM
TGI (786-0 renal): > 100 µM
GI50 (OVCAR-8 ovarian): 28 µM
TGI (OVCAR-8 ovarian): > 100 µM
GI50 (HT29 colon): 30 µM
TGI (HT29 colon): > 100 µM
GI50 (OVCAR-4 ovarian): 29.7 µM
TGI (OVCAR-4 ovarian): > 100 µM
GI50 (SK-MEL-2 melanoma): 47.4 µM
TGI (SK-MEL-2 melanoma): > 100 µM
GI50 (RPMI-8226 leukemia): 28.2 µM
TGI (RPMI-8226 leukemia): > 100 µM

N#C/C(=C/C=C/c1cccc(Cl)c1)S(=O)c1ccccc1 (centres undefined)
GI50 (M14 melanoma): 1.1 µM
TGI (M14 melanoma): 2.89 µM
GI50 (A549 NSCLC): 1.21 µM
TGI (A549 NSCLC): 3.12 µM
GI50 (K-562 leukemia): 0.301 µM
TGI (K-562 leukemia): 13.2 µM
GI50 (NCI-H23 lung): 0.42 µM
TGI (NCI-H23 lung): 1.74 µM
GI50 (786-0 renal): 0.308 µM
TGI (786-0 renal): 1.01 µM
GI50 (OVCAR-8 ovarian): 0.256 µM
TGI (OVCAR-8 ovarian): 0.629 µM
GI50 (OVCAR-4 ovarian): 0.266 µM
TGI (OVCAR-4 ovarian): 1.16 µM
GI50 (SK-MEL-2 melanoma): 1.62 µM
TGI (SK-MEL-2 melanoma): 3.66 µM
GI50 (RPMI-8226 leukemia): 0.339 µM
TGI (RPMI-8226 leukemia): 1 µM

COc1c2c(c(O)c3c4c(c(C)cc13)C1OC3(C(OC)OC5CC(C)(O)C(OC6CC(C)(O)C(O)C(C)O6)C(C)O5)OC1C(OC)(O4)C31CO1)C(=O)C(O)CC2OC1CC(C)(O)C(OC(C)=O)C(C)O1 (centres undefined)
TGI (M14 melanoma): 0.0156 µM
TGI (A549 NSCLC): 1.45 µM
TGI (K-562 leukemia): 1.66 µM
TGI (NCI-H23 lung): < 0.01 µM
TGI (786-0 renal): < 0.0115 µM
TGI (OVCAR-4 ovarian): < 0.01 µM
TGI (SK-MEL-2 melanoma): < 0.01 µM
TGI (RPMI-8226 leukemia): < 0.01 µM

NCCOCCOCC(=O)O
TGI (A549 NSCLC): > 100 µM
TGI (K-562 leukemia): > 100 µM
TGI (NCI-H23 lung): > 100 µM
TGI (786-0 renal): > 100 µM
TGI (OVCAR-8 ovarian): > 100 µM
TGI (HT29 colon): > 100 µM
TGI (OVCAR-4 ovarian): > 100 µM
TGI (SK-MEL-2 melanoma): > 100 µM
TGI (RPMI-8226 leukemia): > 100 µM

C=C1C(=O)O[C@@H]2C[C@@H](C)[C@@H]3C=CC(=O)[C@@]3(C)[C@@H](OC(=O)CCCC(=O)O[C@H]3[C@@H]4C(=C)C(=O)O[C@@H]4C[C@@H](C)[C@@H]4C=CC(=O)[C@]43C)[C@H]12
TGI (M14 melanoma): 0.0584 µM
TGI (A549 NSCLC): 6.09 µM
TGI (K-562 leukemia): 0.0363 µM
TGI (NCI-H23 lung): 0.275 µM
TGI (786-0 renal): 0.0448 µM
TGI (OVCAR-8 ovarian): 0.0295 µM
TGI (HT29 colon): 0.152 µM
TGI (OVCAR-4 ovarian): 0.262 µM
TGI (SK-MEL-2 melanoma): 0.34 µM

CCCC(=O)Nc1cc(/C=C/C(=O)N2C[C@@H]3C[C@]34C2=CC(=O)c2[nH]cc(C)c24)n(C)c1
GI50 (M14 melanoma): 0.0672 µM
TGI (M14 melanoma): 1.55 µM and 0.22 µM
TGI (K-562 leukemia): 25 µM
GI50 (NCI-H23 lung): 0.0119 µM
TGI (NCI-H23 lung): 0.645 µM and 0.0939 µM
GI50 (786-0 renal): 0.021 µM
GI50 (OVCAR-8 ovarian): 0.0447 µM
TGI (OVCAR-8 ovarian): 0.406 µM and 0.285 µM
TGI (HT29 colon): 2.77 µM
GI50 (OVCAR-4 ovarian): 0.18 µM
TGI (OVCAR-4 ovarian): 1.43 µM and 0.474 µM
GI50 (SK-MEL-2 melanoma): 0.151 µM
TGI (SK-MEL-2 melanoma): 0.817 µM and 0.287 µM
GI50 (RPMI-8226 leukemia): 0.193 µM
TGI (RPMI-8226 leukemia): 3.72 µM and 0.757 µM

O=C(C#Cc1ccccc1)NC/C=C/c1ccccc1
TGI (M14 melanoma): > 100 µM
TGI (A549 NSCLC): > 100 µM
TGI (K-562 leukemia): > 100 µM
TGI (NCI-H23 lung): > 100 µM
TGI (786-0 renal): 56.2 µM
TGI (OVCAR-8 ovarian): > 100 µM
TGI (HT29 colon): > 100 µM
TGI (OVCAR-4 ovarian): > 100 µM
TGI (SK-MEL-2 melanoma): 97.4 µM

CCNc1ccc2c(c1)C(=O)N(OS(C)(=O)=O)C2=O
TGI (M14 melanoma): > 100 µM
TGI (A549 NSCLC): > 100 µM
TGI (NCI-H23 lung): > 100 µM
TGI (786-0 renal): > 100 µM
TGI (OVCAR-8 ovarian): > 100 µM
TGI (HT29 colon): > 100 µM
TGI (OVCAR-4 ovarian): > 100 µM
TGI (SK-MEL-2 melanoma): > 100 µM
TGI (RPMI-8226 leukemia): 87.3 µM

Cc1nc(Nc2ccc(Cl)cc2)sc1C(=O)Nc1cccc2c(=O)[nH][nH]c(=O)c12
TGI (M14 melanoma): 86.2 µM
TGI (A549 NSCLC): > 100 µM
TGI (K-562 leukemia): 47.3 µM
TGI (NCI-H23 lung): 40.5 µM
TGI (786-0 renal): 47.9 µM
TGI (OVCAR-8 ovarian): > 100 µM
TGI (HT29 colon): 41.6 µM
TGI (OVCAR-4 ovarian): > 100 µM
TGI (SK-MEL-2 melanoma): > 100 µM
